Experimental data as given in patent US20100305202A1, “LYOPHILIZED PHARMACEUTICAL COMPOSITION WITH IMPROVED STABILITY CONTAINING TAXANE DERIVATIVES, AND METHOD OF MANUFACTURING THE SAME” (priority 2007, published 2010).

Columns and labels:
[1] = no additive; cited from earlier work
[2] = Solubility of docetaxel in distilled water with PVP and HPBCD (Experimental Example 1); assay type: physicochemical
Description: The solubility of docetaxel was measured by performing liquid chromatography with UV detector (230 nm).
The solubility of docetaxel in distilled water proportionally increases between 10% and 30% of weight ratio (w/v %) of hydroxypropyl β-cyclodextrin (HPBCD).
Further, the ratio of HPBCD relative to docetaxel was at least 1:11 and the concentration of HPBCD will be lowered if the concentration unit (w/v) is converted into (mg/mL) unit. Therefore, docetaxel may be solubilized even when the ratio of docetaxel:HPBCD becomes smaller than 1:11. Therefore, according to the present invention, it is preferable to use more than 1 part by weight of hydroxypropyl β-cyclodextrin (HPBCD), and more preferably 5 parts by weight relative to 1 part by weight of the taxoid.

CC(=O)O[C@@]12CO[C@@H]1C[C@H](O)[C@@]1(C)C(=O)[C@H](O)C3=C(C)[C@@H](OC(=O)[C@H](O)[C@@H](NC(=O)OC(C)(C)C)c4ccccc4)C[C@@](O)([C@@H](OC(=O)c4ccccc4)[C@H]21)C3(C)C [docetaxel]
commonly known solubility of docetaxel in distilled water [1]: 0.025 µg/mL
better solubility with HPBCD versus distilled water ([2]; 31.1 mg/mL versus 0.000025 mg/mL): 1.2 million
solubility of docetaxel added with HPBCD in distilled water ([2]; with hydroxypropyl β-cyclodextrin (HPBCD)): 31.1 mg/mL
